Results published in patent US10206937B2, “Boronic acid derivatives and therapeutic uses thereof” (Qpex Biopharma, Inc., priority 2014, dated 2019).

System: strains of Enterobacteriaceae producing various carbapenemases (class A, D and B; 104 strains)
Experiment: Antibiotics potentiation by Compound 27 (MIC; meropenem, doripenem, ertapenem, cefepime)
Type: cell-based
Conditions: + 27 = with Compound 27 at fixed 4 μg/ml

C[C@@H](O)[C@H]1C(=O)N2C(C(=O)O)=C(S[C@@H]3CN[C@H](C(=O)N(C)C)C3)[C@H](C)[C@H]12 [M]
MIC (strain KP1081 Klebsiella pneumoniae (NDM-1, TEM-1, SHV-11, CMY-6, CTX-M-15)): Z (MIC of greater than 10 μg/mL)
MIC (strain KP1082 Klebsiella pneumoniae (KPC-2, SHV-1)): Y (MIC of 1 μg/mL to 10 μg/mL)
MIC (strain KP1083 Klebsiella pneumoniae (KPC-3, SHV-1, TEM-1)): Y (MIC of 1 μg/mL to 10 μg/mL)
MIC (strain KP1084 Klebsiella pneumoniae (KPC-3, SHV-11, TEM-1)): Z (MIC of greater than 10 μg/mL)
MIC (strain KP1086 Klebsiella pneumoniae (OXA-48, CTX-M-15, TEM, SHV)): Z (MIC of greater than 10 μg/mL)
MIC (strain KP1087 Klebsiella pneumoniae (KPC-2, CTX-M-15, SHV-11, TEM-1)): Z (MIC of greater than 10 μg/mL)
MIC (strain KP1088 Klebsiella pneumoniae (KPC-3, SHV-11, TEM-1)): Y (MIC of 1 μg/mL to 10 μg/mL)
MIC (strain KP1089 Klebsiella pneumonias (OXA-181, CTX-M-15, TEM, SHV)): Y (MIC of 1 μg/mL to 10 μg/mL)
MIC (strain KP1095 Klebsiella pneumoniae (KPC-2 TEM-1 SHV-1)): Y (MIC of 1 μg/mL to 10 μg/mL)
MIC (strain KP1096 Klebsiella pneumoniae (KPC-2 TEM-181 SHV-11)): Y (MIC of 1 μg/mL to 10 μg/mL)
MIC (strain KP1097 Klebsiella pneumonias (IMP-1)): Z (MIC of greater than 10 μg/mL)
MIC (strain KP1098 Klebsiella pneumoniae (IMP-26)): Z (MIC of greater than 10 μg/mL)
MIC (strain KP1104 Klebsiella pneumoniae (KPC TEM)): Z (MIC of greater than 10 μg/mL)
MIC (strain KP1105 Klebsiella pneumoniae (KPC TEM SHV)): Z (MIC of greater than 10 μg/mL)
MIC (strain KP1159 Klebsiella pneumoniae (SHV-1(2b); CTX-M-15; IMP-4)): Z (MIC of greater than 10 μg/mL)
MIC (strain KP1160 Klebsiella pneumoniae (SHV-28(2be); CTX-M-15; IMP-26)): Z (MIC of greater than 10 μg/mL)
MIC (strain KP1161 Klebsiella pneumoniae (NDM-1)): Z (MIC of greater than 10 μg/mL)
MIC (strain KP1164 Klebsiella pneumoniae (SHV-12(2be); VIM-1)): Z (MIC of greater than 10 μg/mL)
MIC (strain KP1165 Klebsiella pneumoniae (SHV-11(2b); CTX-M-15; VIM-27)): Z (MIC of greater than 10 μg/mL)
MIC (strain KP1166 Klebsiella pneumoniae (SHV-5(2be); VIM-26)): Z (MIC of greater than 10 μg/mL)
MIC (strain KP1167 Klebsiella pneumoniae (SHV-12(2be); VIM-1)): X (MIC of less than 1 μg/mL)
MIC (strain KP1169 Klebsiella pneumoniae (SHV-11(2b); VIM-1)): Z (MIC of greater than 10 μg/mL)
MIC (strain KP1170 Klebsiella pneumoniae (SHV-11(2b); CTX-M-15; NDM-1)): Z (MIC of greater than 10 μg/mL)
MIC (strain KP1172 Klebsiella pneumoniae (SHV-31(2be); DHA-1; VIM-1)): Y (MIC of 1 μg/mL to 10 μg/mL)
MIC (strain KP1173 Klebsiella pneumoniae (TEM-33(2br); CTX-M-15; IMP-1)): Y (MIC of 1 μg/mL to 10 μg/mL)
MIC (strain KP1174 Klebsiella pneumoniae (CTX-M-14; IMP-1)): Y (MIC of 1 μg/mL to 10 μg/mL)
MIC (strain KP1175 Klebsiella pneumoniae (SHV-OSBL(2b); VIM-1)): Z (MIC of greater than 10 μg/mL)
MIC (strain KP1177 Klebsiella pneumoniae (SHV-OSBL(2b), TEM-OSBL(2b); CTX-M-15; NDM-1)): Z (MIC of greater than 10 μg/mL)
MIC (strain KP1178 Klebsiella pneumoniae (SHV-OSBL(2b;) TEM-OSBL(2b); CTX-M-15; NDM-1)): Z (MIC of greater than 10 μg/mL)
MIC (strain KP1179 Klebsiella pneumoniae (SHV-12(2be), TEM-OSBL(2b); CTX-M-15; NDM-7)): Z (MIC of greater than 10 μg/mL)
MIC (strain KP1180 Klebsiella pneumoniae (SHV-OSBL(2b), TEM-OSBL(2b); CTX-M-15; DHA-1; IMP-26)): Y (MIC of 1 μg/mL to 10 μg/mL)
MIC (strain KP1181 Klebsiella pneumoniae (SHV-OSBL(2b); CTX-M-15; IMP-26)): Y (MIC of 1 μg/mL to 10 μg/mL)
MIC (strain KP1183 Klebsiella pneumoniae (SHV-OSBL(2b), TEM-OSBL(2b); CTX-M-15; NDM-1)): Z (MIC of greater than 10 μg/mL)
MIC (strain KP1184 Klebsiella pneumoniae (SHV-OSBL(2b); IMP-1)): Y (MIC of 1 μg/mL to 10 μg/mL)
MIC (strain KP1185 Klebsiella pneumoniae (SHV-OSBL(2b), TEM-OSBL(2b); IMP-4)): Z (MIC of greater than 10 μg/mL)
MIC (strain KP1186 Klebsiella pneumoniae (CTX-M-15; NDM-1)): Z (MIC of greater than 10 μg/mL)
MIC (strain KP1187 Klebsiella pneumoniae (SHV-55(2be), TEM-OSBL(2b); CTX-M-15; NDM-1)): Z (MIC of greater than 10 μg/mL)
MIC (strain KP1188 Klebsiella pneumoniae (SHV-OSBL(2b); CTX-M-15; NDM-1)): Z (MIC of greater than 10 μg/mL)
MIC (strain KP1189 Klebsiella pneumoniae (TEM-OSBL(2b); CTX-M-15; CTX-M-27; NDM-1)): Z (MIC of greater than 10 μg/mL)
MIC (strain KPM1123 Klebsiella pneumoniae (KPC-2 TEM SHV)): Z (MIC of greater than 10 μg/mL)
MIC (strain KPM1202 Klebsiella pneumoniae (KPC SHV TEM)): Y (MIC of 1 μg/mL to 10 μg/mL)
MIC (strain KPM1203 Klebsiella pneumoniae (KPC SHV TEM)): Y (MIC of 1 μg/mL to 10 μg/mL)
MIC (strain KPM1344 Klebsiella pneumoniae (VIM-1)): Y (MIC of 1 μg/mL to 10 μg/mL)
MIC (strain KPM1345 Klebsiella pneumoniae (VIM-1 SHV)): Z (MIC of greater than 10 μg/mL)
MIC (strain KPM1347 Klebsiella pneumoniae (NDM-1 SHV CTX-M-15)): Z (MIC of greater than 10 μg/mL)
MIC (strain KX1017 Klebsiella oxytoca (KPC-2, OXA-2, SHV-30)): Y (MIC of 1 μg/mL to 10 μg/mL)
MIC (strain KX1018 Klebsiella oxytoca (KPC-2, SHV-40, OXY-1)): Y (MIC of 1 μg/mL to 10 μg/mL)
MIC (strain KX1019 Klebsiella oxytoca (KPC-2, OXA-2)): Y (MIC of 1 μg/mL to 10 μg/mL)
MIC (strain PM1024 Proteus mirabilis (TEM-1(2b); CMY-16; VIM-1)): Y (MIC of 1 μg/mL to 10 μg/mL)
MIC (strain PM1026 Proteus mirabilis (DHA-1; IMP-26)): Z (MIC of greater than 10 μg/mL)
MIC (strain PM1027 Proteus mirabilis (VIM-5)): Z (MIC of greater than 10 μg/mL)
MIC (strain SM1023 Serratia marcescens (VIM-4)): Z (MIC of greater than 10 μg/mL)
